# Assay results from ChEMBL document CHEMBL6092185, “Discovery of glycosidated glycyrrhetinic acid derivatives: Natural product-based soluble epoxide hydrolase inhibitors” (Eur J Med Chem, 2024).
# What was measured:
# [1] = biological target: T1, Bifunctional epoxide hydrolase 2 (Mus musculus, UniProt P34914); experiment: Inhibition of C57BL/6J mouse cortex sEH using 14,15-EET as substrate preincubated for 15 mins followed by substrate addition measured after 2 hrs by UPLC-MS/MS analysis
# T1 sequence (P34914 whole entry): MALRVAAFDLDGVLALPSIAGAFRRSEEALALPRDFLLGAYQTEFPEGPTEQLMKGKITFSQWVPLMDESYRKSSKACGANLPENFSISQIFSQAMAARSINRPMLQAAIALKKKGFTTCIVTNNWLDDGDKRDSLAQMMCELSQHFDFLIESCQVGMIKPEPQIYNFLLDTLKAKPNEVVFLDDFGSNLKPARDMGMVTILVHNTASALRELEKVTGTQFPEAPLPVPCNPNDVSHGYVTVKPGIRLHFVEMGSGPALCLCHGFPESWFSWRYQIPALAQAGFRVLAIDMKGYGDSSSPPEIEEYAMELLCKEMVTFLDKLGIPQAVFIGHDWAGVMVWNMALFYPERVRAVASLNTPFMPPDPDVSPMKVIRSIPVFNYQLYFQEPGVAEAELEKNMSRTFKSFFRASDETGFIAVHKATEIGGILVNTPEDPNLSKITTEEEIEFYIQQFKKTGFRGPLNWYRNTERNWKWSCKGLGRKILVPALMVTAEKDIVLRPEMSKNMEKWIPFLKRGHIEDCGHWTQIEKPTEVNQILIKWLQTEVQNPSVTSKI
# Mus musculus = species: Mus musculus; experiment: animal or person; conditions: BALB/c, po, 6 h, read-out: INH
# Description: Anti-inflammatory activity in BALB/c mouse model of Carrageenan-induced paw edema assessed as inhibition of edema at 20 mg/kg, IG measured upto 6 hrs relative to control
# [2] = Cytotoxicity against HEK293T cells incubated overnight by CCK8 assay; conditions: human
# [3] = Cytotoxicity against human HepG2 cells incubated overnight by CCK8 assay
# in vivo [4] = conditions: BALB/c, mouse, plasma, po, 20 mg/kg
# Description: Cmax in BALB/c mouse plasma at 20 mg/kg, IG measured upto 24 hrs by LC-MS/MS analysis
# in vivo [5] = conditions: BALB/c, mouse, liver, po, 20 mg/kg
# Description: Cmax in BALB/c mouse liver at 20 mg/kg, IG measured upto 24 hrs by LC-MS/MS analysis
# in vivo [6] = conditions: BALB/c, mouse, plasma, po, 20 mg/kg; remark: listed apart in the source
# Description: AUC (0 to 24 hrs) in BALB/c mouse plasma at 20 mg/kg, IG measured upto 24 hrs by LC-MS/MS analysis
# in vivo [7] = conditions: BALB/c, mouse, liver/plasma, po, 20 mg/kg
# Description: Ratio of Cmax in BALB/c mouse liver to plasma at 20 mg/kg, IG measured upto 24 hrs by LC-MS/MS analysis
# in vivo [8] = conditions: BALB/c, mouse, liver/plasma, po, 20 mg/kg; remark: listed apart in the source
# Description: Ratio of AUC (0 to 24 hrs) in BALB/c mouse liver to plasma at 20 mg/kg, IG measured upto 24 hrs by LC-MS/MS analysis
# [9] = biological target: T2, Bifunctional epoxide hydrolase 2 (Homo sapiens, UniProt P34913); experiment: Inhibition of sEH (unknown origin) using PHOME as substrate incubated for 1 hr by fluorimetric assay
# T2 sequence (P34913 whole entry): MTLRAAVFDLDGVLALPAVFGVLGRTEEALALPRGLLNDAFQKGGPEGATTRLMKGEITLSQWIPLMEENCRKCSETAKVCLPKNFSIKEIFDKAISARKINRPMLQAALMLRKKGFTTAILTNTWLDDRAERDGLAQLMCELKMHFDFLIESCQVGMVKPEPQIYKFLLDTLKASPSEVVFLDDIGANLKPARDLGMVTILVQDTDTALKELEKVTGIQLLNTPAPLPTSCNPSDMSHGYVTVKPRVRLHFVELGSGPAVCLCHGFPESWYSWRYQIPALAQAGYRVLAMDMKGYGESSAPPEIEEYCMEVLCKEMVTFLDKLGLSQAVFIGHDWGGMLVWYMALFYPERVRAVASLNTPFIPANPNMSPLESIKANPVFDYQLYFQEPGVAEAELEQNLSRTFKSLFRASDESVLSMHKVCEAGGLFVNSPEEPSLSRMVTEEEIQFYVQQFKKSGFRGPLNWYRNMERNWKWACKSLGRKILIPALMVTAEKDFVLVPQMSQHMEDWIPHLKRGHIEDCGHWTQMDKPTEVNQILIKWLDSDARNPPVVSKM
IC50 [1] [µM],Cmax at 24 h (in vivo [4]) [ng/mL],Cmax at 24 h (in vivo [5]) [ng/g],AUC(0-t) at 24 h (in vivo [6]) [ng·h/mL],Kp at 24 h (in vivo [7]),Kp at 24 h (in vivo [8]),IC50 [9] [µM],Compound,inhibition in vivo at 20 mg/kg (Mus musculus) [%],IC50 [2] [µM],IC50 [3] [µM]
0.0861,–,–,–,–,–,–,CC1(C)[C@@H](O[C@H]2OC[C@@H](O)[C@@H](O)[C@@H]2O)CC[C@]2(C)[C@H]3C(=O)C=C4[C@H]5C[C@@](C)(CNC(=O)NCC6CCOCC6)CC[C@]5(C)CC[C@@]4(C)[C@]3(C)CC[C@@H]12,37.4,–,–
0.121,194,2140,655,11,8.91,–,CC1(C)[C@@H](O[C@H]2O[C@H](CO)[C@@H](O)[C@H](O)[C@@H]2O)CC[C@]2(C)[C@H]3C(=O)C=C4[C@H]5C[C@@](C)(CNC(=O)NCC6CCOCC6)CC[C@]5(C)CC[C@@]4(C)[C@]3(C)CC[C@@H]12,–,46.6,17.6
–,–,–,–,–,–,11.1,C[C@H]1[C@H](C)CC[C@]2(C(=O)O)CC[C@]3(C)C(=CC[C@@H]4[C@@]5(C)CC[C@H](O)C(C)(C)[C@@H]5CC[C@]43C)[C@H]12 [URSOLIC ACID],–,–,–
